Results published in patent US5063205A, “Uptake of iron by the body” (National Research Development Corporation, priority 1987, dated 1991).

Legend:
[1] = test system: intestinal fragments from the mice; test: In vitro 59Fe3+ uptake by intestinal fragments from EGF-fed mice; design: species or system mouse; settings: intestinal fragments of mice given about 1 n.mole/day EGF in drinking water; 0-450 μM Fe3+ nitrilotriacetate chelate; n in parentheses
Description: (§1) (A) Six week old, male To mice received doses averaging 1 n.mole/day of mouse epidermal growth factor in their drinking water during a period of up to 7 days, a control group of similar mice receiving plain drinking water. Iron absorption was then studied in the mice by both in vitro and in vivo techniques. The former, using techniques as described by Raja et al, Cell Biochem. and Funct., 1987, 5, 69-76, involved incubation of intestinal fragments from the mice with a 0-450 μM solution of a Fe^3+ chelate (the 2:1 nitrilotriacetate:iron(III) complex) whilst the latter, using techniques as described by Simpson and Peters, Biochim. Biophys. Acta., 1986, 856, 115-122), involved instillation of 50-100 μl of a 250 μM solution of the Fe^3+ chelate into a tied-off loop of intestine of an anaesthetised mouse.

[2] = test system: mice; test: Whole body retention of intragastric 59Fe3+ by gamma counting; type: in vivo, mouse; settings: EGF in drinking water for 3 days, 12 hours fast, intragastric 1 μCurie 59Fe3+ as 50 μl of 100 μM chelate; whole body count
Description: (B) The procedure described under (A) was repeated but with the treated mice receiving the EGF for 3 rather than 7 days. After fasting for 12 hours both the EGF-treated and the control mice were treated intragastrically with 1 μCurie of ^59 Fe^3+ administered as 50 μl of a 100 μM aqueous solution of the radiolabelled 2:1 nitrilotriacetic acid:iron(III) complex. The mice were subjected to a whole body count by gamma counting at 3 hours and 7 days later.

[3] = test system: duodenum; test: Duodenum wet weight and cell turnover (L-ornithine decarboxylase activity) after oral EGF; type: in vivo, mouse; settings: oral EGF about 1 n.mole/day, up to 7 days
[4] = test system: tied-off loop of intestine of an anaesthetised mouse; test: In vivo 59Fe3+ uptake from tied-off loop of intestine of anaesthetised mouse
Description: as §1

[5] = given intravenously; cited from earlier work
[6] = mean ± SE, oral EGF about 1 n.mole/day in drinking water, 250 μM Fe3+ chelate in tied-off loop, p < 0.01 vs controls

## epidermal growth factor [EGF]
[1]
  Vmax for 59Fe3+ uptake: 9.4 ± 1.1 pmol/mg/min
[2]
  Percentage of the 59Fe3+ present at 3 hours which was retained after 7 days: 21.0±3.2
[3]
  Cell turnover rates as reflected by L-ornithine decarboxylase activity in the duodenum: elevated
[4]; EGF in drinking water for up to 7 days
  Time course of total mucosal uptake of 59Fe3+ in vivo: maximal after 3 days
[4]; mean ± SE, oral EGF about 1 n.mole/day in drinking water, 250 μM Fe3+ chelate in tied-off loop, p < 0.001 vs controls
  Total mucosal flux: 92.4 ± 8.4 pmol 59Fe3+ /mg tissue/10 minu
[4]; [6]
  Carcass transfer: 35.3 ± 2.6 pmol 59Fe3+ /mg tissue/10 minu
  Mucosal retention: 57.1 ± 6.3 pmol 59Fe3+ /mg tissue/10 minu
[5]
  Half life in vivo: about 21/2
